This is an account of results in PMC10825690, “Crystal structures of human immune protein FIBCD1 suggest an extended binding site compatible with recognition of pathogen-associated carbohydrate motifs” (The Journal of Biological Chemistry, 2023).

Substitutions are numbered along the chain they refer to.

For assay [1], the system named is FIBCD1. Set-up: method as in PMID 19710473. Particulars: comparison with GlcNAc; cited from earlier work.
Assay [2] has as its target T1, FIBCD1-FReD (Homo sapiens, UniProt Q8N539).
T1 construct: FIBCD1-FReD (residues 236–461) was expressed in Sf9 insect cells; made in house; host or cells: Sf9 insect cells (pNT-Bac vector)
T1 sequence (Q8N539 236-461): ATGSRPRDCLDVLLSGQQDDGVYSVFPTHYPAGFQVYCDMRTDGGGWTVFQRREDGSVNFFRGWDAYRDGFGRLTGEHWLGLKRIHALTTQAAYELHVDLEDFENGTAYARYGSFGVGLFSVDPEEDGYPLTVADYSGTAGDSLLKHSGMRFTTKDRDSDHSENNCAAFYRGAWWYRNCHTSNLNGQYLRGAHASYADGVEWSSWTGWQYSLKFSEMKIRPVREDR
Kind of assay: Microscale thermophoresis (MST) affinity assay. The assay is classed as binding. Particulars: for Kd: labeled FIBCD1-FReD 30 nM, TBS/Tw 5 mM CaCl2, 25 °C, mean ± SD, three to four measurements. The method, then: (§1) The binding of FIBCD1-FReD with GlcNAc, (GlcNAc)3, and longer N-acetylchitooligosaccharides of defined length ((GlcNAc)5 and (GlcNAc)11) was investigated by ELISA. The relative affinity for these carbohydrates was assessed by inhibiting the binding of FIBCD1 to immobilized acetylated bovine serum albumin (AcBSA) in microtiter plates. […] The ligand-binding properties of FIBCD1-FReD were further evaluated using microscale thermophoresis (MST) measurements.
(§2) The cloning, expression, and purification of FIBCD1-FReD have been described in detail ([1]). Briefly, for the protein used for the ligand-bound crystal structures, the initial enzyme-linked immunosorbent inhibition assay (ELISA) and the MST affinity assay, FIBCD1-FReD (residues 236–461) was expressed in Sf9 insect cells using the pNT-Bac vector expression system. The recombinant FIBCD1-FReD variants used for the native crystal structure and for the repeated measurements of (GlcNAc)n n = 1, 2, 3 inhibition by ELISA, the same fragments of FIBCD1-FReD (wildtype, H396A, and K381L) were expressed in Chinese hamster ovary (CHO) cells using the ExpiCHO expression system (ThermoFisher Scientific) with FIBCD1-FReD (including the IgG K signal peptide for secretion) cloned into the pcDNA3.1+ plasmid (Genscript). Purification of the FIBCD1-FReD variants, regardless of the expression system, was achieved through affinity chromatography using acetylated Toyopearl AF-Amino-650M resin (Tosoh) followed by ion-exchange chromatography using a Resource Q ion-exchange column (GE Healthcare) as outlined in Schlosser et al. (Ref ([1])).
The affinity between recombinant FIBCD1-FReD and the acetylated sugars GlcNAc, (GlcNAc)5 and ManNAc as well as AcBSA was determined by MST. FIBCD1-FReD expressed by insect cells was labeled using the Monolith NT Protein Labeling Kit RED-NHS (NanoTemper Technologies) according to the manufacturer’s instructions. Removal of unreacted dye was performed with the supplied columns equilibrated in TBS containing 5 mM CaCl2. Labeled FIBCD1-FReD was diluted in assay buffer (TBS/Tw containing 5 mM CaCl2) and used at a constant concentration of 30 nM throughout the experiments, whereas the putative ligands were titrated in 2-fold dilutions, ranging from 0.6 nM to 10 μM (AcBSA), 100 μM to 200 mM (GlcNAc), 50 μM to 100 mM (GlcNAc)5, and 250 μM to 500 mM (ManNAc). For the measurements, all ligands were incubated with labeled FIBCD1-FReD for 20 min at RT (21–22 °C) before being loaded into standard capillaries (NanoTemper Technologies). […] Data from three to four independently pipetted experiments were analyzed using the NanoTemper Analysis 1.2.20 software and used to fit the data for determination of the Kd values.
A general note: MST reads how a fluorescent partner responds to local heating, with and without ligand.

In assay [3] the target is T1, FIBCD1-FReD. Nature of the assay: ELISA inhibition of FIBCD1-FReD (insect cell expressed) binding to immobilized AcBSA. To be noted: insect cell expressed FIBCD1-FReD 50 ng/ml, 5 mM CaCl2, mean ± SD, three to four experiments. The method, then:
as §1, §2
(§3) The specificity of the binding of recombinant FIBCD1-FReD, expressed in insect cells, to AcBSA was assayed in technical duplicates by inhibition with acetylated compounds, including GlcNAc (Sigma-Aldrich) and three N-acetylchitooligosaccharides of defined length ((GlcNAc)3, (GlcNAc)5, and (GlcNAc)11) and acetylation (66%), which were kindly provided by Professor Morten Sølie (Norwegian University of Life Sciences). […]
For orientation: An ELISA detects its analyte on a solid surface through an enzyme-linked reagent.

Assay [4] has as its target T2, mutant variant H396A FIBCD1-FReD (Homo sapiens, UniProt Q8N539, H396A).
T2 construct: FIBCD1-FReD (residues 236–461) was expressed in Sf9 insect cells; IgG K signal peptide (N); made in house; host or cells: CHO cells (ExpiCHO system, pcDNA3.1+)
T2 sequence (Q8N539 236-461 H396A): T1 sequence (Q8N539 236-461) with H161A
Nature of the assay: Repeated ELISA inhibition of H396A FIBCD1-FReD (CHO expressed) binding to AcBSA. Particulars: ELISA repeated measurements, mean ± SD, five experiments.
Source text: (§4) For S1(2), the mutation K381L was chosen to block this site. In the crystal structure of the homologous protein ficolin-3 the overall topology of this pocket is similar but the Leu381 side chain extends into the site and a similar orientation in FIBCD1 would preclude the ligand binding in this pocket (see Fig. S5). […] For the S1(3) site, the mutation H396A was used. There is no significant difference in affinity for H396A compared with wildtype for each GlcNAc ligand investigated (see Fig. S6C).
as §2, §3

For assay [5], the target named is T3, wildtype (WT) FIBCD1-FReD (Homo sapiens, UniProt Q8N539).
T3 construct: FIBCD1-FReD (residues 236–461) was expressed in Sf9 insect cells; IgG K signal peptide (N); made in house; host or cells: CHO cells (ExpiCHO system, pcDNA3.1+)
T3 sequence (Q8N539 236-461): T1 sequence (Q8N539 236-461)
Nature of the assay: Repeated ELISA inhibition of wildtype FIBCD1-FReD (CHO expressed) binding to AcBSA. To be noted: ELISA repeated measurements, mean ± SD, eight experiments.
Source text: To study the finer details of short oligomer recognition, binding of GlcNAc, (GlcNAc)2, and (GlcNAc)3 was further investigated by ELISA.
as §2
as §3, with “Sciences). The monoclonal antibodies used in the study here were generated in-house at the University of Southern Denmark and chosen from a large series of monoclonal antibodies raised against the FReD domain (human) in FIBCD1-deficient mice—details for the production are given in ([3]).” for “Sciences).”

Assay [6] addresses T4, FIBCD1-FReD mutant variant K381L (Homo sapiens, UniProt Q8N539, K381L).
T4 construct: FIBCD1-FReD (residues 236–461) was expressed in Sf9 insect cells; IgG K signal peptide (N); made in house; host or cells: CHO cells (ExpiCHO system, pcDNA3.1+)
T4 sequence (Q8N539 236-461 K381L): T1 sequence (Q8N539 236-461) with K146L
Kind of assay: ELISA binding of K381L FIBCD1-FReD to AcBSA. To be noted: two different detection antibodies (clones 11-14-25 and 11-14-13).
Source text: as §4
as §3, with “Sciences). The monoclonal antibodies used in the study here were generated in-house at the University of Southern Denmark and chosen from a large series of monoclonal antibodies raised against the FReD domain (human) in FIBCD1-deficient mice—details for the production are given in ([3]).” for “Sciences).”

`CC(=O)N[C@H]1[C@H]([C@H](O)[C@H](O)CO)OC(O)(C(=O)O)C[C@@H]1O` (stereo partly drawn) [Neu5Ac, N-acetylneuraminic acid]: the “IC50 relative to GlcNAc” value in assay [1] is “lower IC50 than GlcNAc”.

One may read the Kd as the concentration at which binding is half-saturated. The low end stands for a tighter complex, the high end for a looser complex. The compound `CC(=O)N[C@@H]1C(O)O[C@H](CO)[C@@H](O)[C@@H]1O` (stereo partly drawn) [ManNAc, N-acetyl-D-mannosamine] showed a Kd in assay [2] of 31000 ± 8000 µM.

Usually IC50 stands for the concentration needed to halve the response being measured. The low end stands for greater potency, the high end for weaker potency. As for `CC(=O)N[C@H]1[C@H](O[C@H]2[C@H](O)[C@@H](NC(C)=O)C(O)O[C@@H]2CO)O[C@H](CO)[C@@H](O[C@@H]2O[C@H](CO)[C@@H](O)[C@H](O)[C@H]2NC(C)=O)[C@@H]1O` (stereo partly drawn) [(GlcNAc)3], the IC50 in assay [3] was 500 ± 60 µM; in assay [4], 1200 ± 140 µM; in assay [5], 1100 ± 100 µM.

(GlcNAc)5 returned an IC50 in assay [3] of 100 ± 30 µM. Also, the “fold difference in affinity (Kd) between GlcNAc and (GlcNAc)5” value in assay [2] (MST, GlcNAc Kd versus (GlcNAc)5 Kd) was 23 fold. In addition, the Kd in assay [2] worked out at 1200 ± 400 µM.

“AcBSA: acetylated bovine serum albumin, poly-acetylated model ligand”: the “binding of K381L FIBCD1-FReD to AcBSA in ELISA” value in assay [6] was “did not bind”.

For `CC(=O)N[C@H]1[C@H](O[C@H]2[C@H](O)[C@@H](NC(C)=O)C(O)O[C@@H]2CO)O[C@H](CO)[C@@H](O)[C@@H]1O` (stereo partly drawn) [(GlcNAc)2, N,N′-diacetylchitobiose], the IC50 in assay [4] is 1400 ± 110 µM; in assay [5], 1400 ± 160 µM.

In the case of `CC(=O)N[C@@H]1[C@@H](O)[C@H](O)[C@@H](CO)O[C@H]1O` [GlcNAc, N-acetylglucosamine], the results for the IC50 in assay [3], in assay [4] and in assay [5] were 2000 ± 220 µM, 2400 ± 220 µM and 2200 ± 190 µM, respectively. This compound displayed a Kd in assay [2] of 27000 ± 9000 µM.
